According to patent US8173428B2, “LNA oligonucleotides and the treatment of cancer” (Santaris Pharma A/S, priority 2004, dated 2012):
Oligonucleotides are written 5' to 3', each unit as a sugar letter and its base; * is a phosphorothioate linkage, no mark a phosphodiester; rarer units and linkages stand in square brackets, end groups in braces. Plain capitals give the bases only. l = locked nucleic acid (LNA); [5mC] = 5-methylcytosine; d = 2'-deoxy (DNA)

How the values were obtained:
[1] = system: Survivin full length, Survivin2B and SurvivinΔex3 mRNA; experiment: Survivin splice variant mRNA expression by real-time PCR in 15PC3 cells; format: cell-based, human; conditions: 5 nM, normalised to GAPDH, relative to mock
Procedure: Cell culturing and transfections: 15PC3 cells were seeded in 12-well plates and grown for two days at 37° C. (5% CO2) in DMEM supplemented with 10% FBS, Glutamax I and Gentamicin. When the cells were 60-70% confluent, they were transfected in duplicates with different concentrations of oligonucleotides (0.2-25 nM) using Lipofectamine 2000 (10 μg/ml). Transfections were carried out essentially as described by Dean et al. (1994, JBC 269:16416-16424). In short, cells were incubated for 10 min. with Lipofectamine in OptiMEM followed by addition of oligonucleotide to a total volume of 0.5 ml transfection mix per well. […]
To determine the relative Survivin mRNA level in oligonucleotide treated and untreated cells, the generated cDNA was used in quantitative PCR analysis using an iCycler from BioRad. The cDNA was diluted 5-fold and 8 μl was mixed with 52 μl Taqman probe master mix containing 30 μl Platinum Quantitative PCR SuperMix UDG 2×PCR master mix (Invitrogen), 3 μl 20× Taqman probe and primer mix (forward primer: 5′[…] (SEQ ID NO:29), final 0.9 μM. Reverse primer: 5′[…] (SEQ ID NO:30), final 0.6 μM and taqman probe: FAM-[…]-TAMRA (SEQ ID NO:31), final 0.1 μM) and 19 μl H2O. […]
The primers and probe were obtained from Proligonucleotide (France). […] Relative quantities of Survivin mRNA were determined from the calculated threshold cycle using the iCycler IQ Real Time Detection System software.

15PC3 cells = experiment: Caspase 3/7 activity (apoptosis) in transfected 15PC3 cells; format: cell-based, human
Procedure: Culturing of cells: 15PC3 was cultured in DMEM (Sigma) containing 10% fetal bovine serum, Glutamax I and gentamicin at 37° C., 95% humidity and 5% CO2. The cervical carcinoma cell line HeLa were cultured in MEM (Sigma) containing 10% fetal bovine serum, Glutamax I and gentamicin at 37° C., 95% humidity and 5% CO2. When reaching 60-70% confluency, the cells were transfected using Lipofectamine 2000 (5 μg/ml).
15PC3 cells were seeded to a density of 10000 cells per well in white 96-well plates (Nunc 136101) in DMEM the day prior to transfection. The next day cells were washed once in prewarmed OptiMEM followed by addition of 72 μl OptiMEM containing 5 μg/ml Lipofectamine-2000 (In vitrogen). Cells were incubated for 7 min before adding 18 μl oligonucleotides diluted in OptiMEM. The final oligonucleotide concentration ranged from 0.2 nM to 100 nM. After 4 hours of treatment, cells were washed in OptiMEM and 100 μl DMEM containing serum was added. Following oligonucleotide treatment, cells were allowed to recover for the period indicated before they were removed from the CO2 incubator and equilibrated to room temperature for 15 min. 100 μl of the highly sensitive Caspase 3/7-Glo™ Reagent (Promega) was added directly to the cells, and the plates were incubated for 20 min. Luminescence (luciferase activity) was recorded in a Luminoskan Ascent instrument (Thermo Labsystems). The luciferase activity is measured as Relative Light Units per seconds (RLU/s). The data was analysed using the Ascent software 2.4.2. Graphs of fold induction relative to mock were generated using MS Excel.
Staurosporine, Camptothecine or Taxol induced cells served as positive controls (see FIGS. 3, 6A and Table 4 plus Example 21).

mice = experiment: i.v. acute toxicity study in mice; format: in vivo
From the text: For SEQ ID NO. 2 the following was found among others in preclinical toxicity studies: […]

Substance: 5′-^MeCsTs^MeCsAsastscscsastsgsgs^MeCsAsGsc-3′ (l[5mC]*lT*l[5mC]*lA*dA*dT*dC*dC*dA*dT*dG*dG*l[5mC]*lA*lG*dC) [SEQ ID NO. 2]
- Expression of the 3 isoforms of Survivin mRNA [1]: able to down-regulate all expressed isoforms of human Survivin
- Apoptosis At 5 nM, 24 hours (15PC3 cells; 5 nM, 24 hours (Table 7, FIG. 3)): 3.5-fold
- Max Apoptosis (15PC3 cells; 25 nM, 24 hours (Table 7)): 6.5-fold
- Maximum Induction Fold-induction of apoptosis, Caspase 3/7 assay (15PC3 cells; 25 nM, 48 hours, 15PC3 cells): 6.9 x (25 nM, 48 hours)
- Fold induction of apoptosis, Caspase 3/7 assay (15PC3 cells; 24 hours, 5 nM, 15PC3 cells, relative to mock): 3.5 x
- maximum non-lethal dose (mice): 1000 mg/kg
